Assays:
rice seedling = conditions: according to Ueno, et al.; cited from earlier work
Arabidopsis thaliana = test: Seed Germination Assay; format: in vivo; conditions: for time for 100% germination: Arabidopsis seed, 0.3 ppm test compound, 0.5% DMSO
Method: To determine the germination inhibition potency of the analogs, a germination assay was performed with the model plant Arabidopsis thaliana. Arabidopsis seed was sterilized by shaking for five minutes in 200 proof ethanol, followed by shaking for five minutes in a 10% bleach solution. The seeds were then washed five times in sterile, distilled, de-ionized water and suspended in 0.1% phytoagar. The tubes containing the seeds were wrapped in aluminum foil and stratified at 4° C. for at least two days. The analogs were tested in four-well plates. Each plate contained one well each of a 0.5% DMSO control, (S)-ABA, (S)-3′-methyl-ABA (Example 2) and (±)-3′-methyl-ABA (Example 4), all at a desired concentration. In a typical experiment, 18 microliters of a 100 ppm stock solution of each compound in 10% DMSO was pipetted into the designated well. Additional DMSO (28.2 microliters) and water (3.8 microliters) was added to each well, followed by the addition of 5.95 mL of ½×Murashige and Skoog media containing 1.2% Bactoagar to all the wells. This gave a total volume of 6.0 mL per well, 0.3 ppm of the test compound and final DMSO concentration of 0.5%. When the media solidified, one hundred sterile stratified Arabidopsis seeds were distributed into each well. The plates were sealed with surgical tape and placed in a growth chamber running diurnal cycles of 12 hours of light at 24° C. and 12 hours of darkness at 19° C. The plates were scanned daily at high resolution (600 dpi) until all seeds were germinated. A seed was scored as germinated once the radicle emerged. The percentage of seeds germinated each day is reported in the graph of FIG. 1. The tests at each concentration were repeated at least twice and the results were reproducible.

(S)-ABA 8′-hydroxylase = conditions: according to Ueno, et al.; cited from earlier work

Row | Compound | activity in rice seedling elongation assay relative to (S)-ABA (rice seedling) | time for 100% germination (Arabidopsis thaliana) [days] | activity in (S)-ABA 8′-hydroxylase inhibition assay relative to (S)-ABA ((S)-ABA 8′-hydroxylase) | potency at inhibiting Arabidopsis seed germination relative to (S)-ABA or (±)-3′-methyl-ABA (Arabidopsis thaliana; 0.3 ppm, FIG. 1)
1 | CC1=C(C)C(O)(/C=C/C(C)=C\C(=O)O)C(C)(C)CC1=O (racemic) [Example 4, (±)-(2Z,4E)-5-(1-hydroxy-2,3,6,6-tetramethyl-4-oxocyclohex-2-en-1-yl)-3-methylpenta-2,4-dienoic acid] | equal activity to (S)-ABA | 8 | weaker activity than (S)-ABA | 
2 | CC1=CC(=O)CC(C)(C)[C@@]1(O)/C=C/C(C)=C/C(=O)O [(S)-ABA, (S)-abscisic acid] |  | 6 |  | 
3 | CC1=C(C)[C@](O)(/C=C/C(C)=C\C(=O)O)C(C)(C)CC1=O [Example 2, (2Z,4E)-((S)-1-hydroxy-2,3,6,6-tetramethyl-4-oxocyclohex-2-en-1-yl)-3-methylpenta-2,4-dienoic acid] |  | 15 |  | more potent

Source: patent publication US9326508B2, “(S)-3′-methyl-abscisic acid and esters thereof” (Valent BioSciences Corporation, priority 2014, dated 2016)
